Measured values as given in USRE48711E1, “Apoptosis signal-regulating kinase inhibitors” (Gilead Sciences, Inc., priority 2009, dated 2021).

Target: ASK1 (Apoptosis Signal-Regulating Kinase 1) (Homo sapiens (Human), UniProt Q99683)
Assay: ASK1 (Apoptosis Signal-Regulating Kinase 1) TR-FRET Kinase Assay (Biochemical IC50)
Details: TR-FRET, biotin-MBP substrate, 20 min pre-incubation, ATP added as 300 μM solution
Protocol: The ability of compounds to inhibit ASK1 kinase activity was determined using a time resolved fluorescence resonance energy transfer [TR-FRET] assay utilizing biotinylated myelin basic protein [biotin-MBP] as the protein substrate. […] The enzyme was allowed to pre-incubate with compound for 20 minutes prior to initiating the kinase reaction with the addition of 5 μL/well 300 μM ATP in buffer (50 mM MOPS, pH 7.0, 5 mM Mg-acetate, 1 mM DTT, 5% DMSO) using the Decrac Fluidics Equator. The kinase reactions were allowed to proceed for 20 minutes at ambient temperature and were subsequently stopped with the addition of 5 μL/well 25 mM EDTA using the Deerac Fluidics Equator. […] The TR-FRET signal was then read on a Perkin. Elmer Envision plate reader after incubating the plates at ambient temperature for 2 hours.

ASK1 (Apoptosis Signal-Regulating Kinase 1), sequence (Q99683 649-946): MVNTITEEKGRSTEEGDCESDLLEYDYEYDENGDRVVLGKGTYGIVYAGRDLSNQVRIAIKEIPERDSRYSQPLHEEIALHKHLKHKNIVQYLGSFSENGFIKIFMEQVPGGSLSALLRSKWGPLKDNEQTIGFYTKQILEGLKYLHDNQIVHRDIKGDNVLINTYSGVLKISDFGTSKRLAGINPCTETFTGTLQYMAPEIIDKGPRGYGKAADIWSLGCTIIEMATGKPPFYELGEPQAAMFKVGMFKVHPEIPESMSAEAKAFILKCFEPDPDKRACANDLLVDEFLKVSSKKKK

Row | SMILES | IC50 [nM]
1 | C[C@H](n1cnnc1-c1cccc(NC(=O)c2cc(-c3ccc(C4CC4)nc3)ccn2)c1)C(C)(C)C [Example 242, (S)-6-cyclopropyl-N-(3-(4-(3,3-dimethylbutan-2-yl)-4H-1,2,4-triazol-3-yl)phenyl)-3,4′-bipyridine-2′-carboxamide] | 1130
2 | CC(CN1CCCC1)n1cnnc1-c1cccc(NC(=O)c2cc(-c3ccc(C4CC4)nc3)ccn2)n1 (stereo not shown) [Example 245, 6-cyclopropyl-N-(6-(4-(1-(pyrrolidin-1-yl)propan-2-yl)-4H-1,2,4-triazol-3-yl)pyridin-2-yl)-3,4′-bipyridine-2′-carboxamide] | 36
3 | Cc1cc(-c2ccc(C3CC3)nc2)cc(C(=O)Nc2cccc(-c3nncn3C3CC3)c2)n1 [Example 249, 6-cyclopropyl-N-(3-(4-cyclopropyl-4H-1,2,4-triazol-3-yl)phenyl)-6′-methyl-3,4′-bipyridine-2′-carboxamide] | 71
4 | CC(O)c1nnc(-c2ccnc(C(=O)Nc3cccc(-c4nncn4C4CC4)c3)c2)o1 (stereo not shown) [Example 252, N-(3-(4-cyclopropyl-4H-1,2,4-triazol-3-yl)phenyl)-4-(5-(1-hydroxyethyl)-1,3,4-oxadiazol-2-yl)picolinamide] | 3410
5 | Cc1noc(-c2ccnc(C(=O)Nc3cccc(-c4nncn4C4CC4)c3)c2)n1 [Example 253, N-(3-(4-cyclopropyl-4H-1,2,4-triazol-3-yl)phenyl)-4-(3-methyl-1,2,4-oxadiazol-5-yl)picolinamide] | 3490
6 | O=C(Nc1cccc(-c2nncn2C2CC2)c1)c1cc(-c2nc(C3CC3)no2)ccn1 [Example 254, 4-(3-cyclopropyl-1,2,4-oxadiazol-5-yl)-N-(3-(4-cyclopropyl-4H-1,2,4-triazol-3-yl)phenyl)picolinamide] | 1270

Compounds with a lower IC50, results first:

Row | IC50 [nM] | SMILES
7 | 15 | CC(C)n1ccc2ncc(-c3ccnc(C(=O)Nc4cccc(-c5nncn5C5CC5)c4)c3)cc21 [Example 243, N-(3-(4-cyclopropyl-4H-1,2,4-triazol-3-yl)phenyl)-4-(1-isopropyl-1H-pyrrolo[3,2-b]pyridin-6-yl)picolinamide]
8 | 25 | O=C(Nc1cccc(-c2nncn2C2CC2)c1)c1cc(-c2cnc3ccn(CC(F)(F)F)c3c2)ccn1 [Example 244, N-(3-(4-cyclopropyl-4H-1,2,4-triazol-3-yl)phenyl)-4-(1-(2,2,2-trifluoroethyl)-1H-pyrrolo[3,2-b]pyridin-6-yl)picolinamide]
9 | 6 | C[C@H](O)[C@H](C)n1cnnc1-c1cccc(NC(=O)c2cc(-c3ccc(C4CC4)nc3)ccn2)n1 [Example 246, 6-cyclopropyl-N-(6-(4-((2S,3S)-3-hydroxybutan-2-yl)-4H-1,2,4-triazol-3-yl)pyridin-2-yl)-3,4′-bipyridine-2′-carboxamide]
10 | 10 | C[C@@H](O)[C@H](C)n1cnnc1-c1cccc(NC(=O)c2cc(-c3ccc(C4CC4)nc3)ccn2)n1 [Example 247, 6-cyclopropyl-N-(6-(4-((2S,3R)-3-hydroxybutan-2-yl)-4H-1,2,4-triazol-3-yl)pyridin-2-yl)-3,4′-bipyridine-2′-carboxamide]
11 | 7 | CC(O)[C@@H](C)n1cnnc1-c1cccc(NC(=O)c2cc(-c3ccc(C4CC4)nc3)ccn2)n1 (stereo partly drawn) [Example 248, 6-cyclopropyl-N-(6-(4-((2R)-3-hydroxybutan-2-yl)-4H-1,2,4-triazol-3-yl)pyridin-2-yl)-3,4′-bipyridine-2′-carboxamide]
12 | 8 | Cc1cnc(C(=O)Nc2cccc(-c3nncn3C3CC3)c2)cc1-c1ccc(C2CC2)nc1 [Example 250, 6-cyclopropyl-N-(3-(4-cyclopropyl-4H-1,2,4-triazol-3-yl)phenyl)-5′-methyl-3,4′-bipyridine-2′-carboxamide]
13 | 7 | COc1ccc2ncc(-c3ccnc(C(=O)Nc4cccc(-c5nncn5C5CC5)c4)c3)cc2c1 [Example 251, N-(3-(4-cyclopropyl-4H-1,2,4-triazol-3-yl)phenyl)-4-(6-methoxyquinolin-3-yl)picolinamide]
